# Experimental data: patent US6019959A, “Oligomeric compounds that contain perfluoroalkyl, process for their production, and their use in NMR diagnosis” (Schering Aktiengesellschaft, priority 1998, dated 2000)
# Key:
# [1] = T1-relaxivity of commercially available 1H-NMR contrast media; format: physicochemical; conditions: 39° C., 0.47 T
# [2] = Determination of the T1-relaxivity with a Minispec pc 20 in human plasma; format: physicochemical; conditions: 0.47 T (20 MHz), 37° C., human plasma, normalized to one metal atom
# Protocol: Determination of the T^1 -Relaxivity of Selected Compounds
# The relaxivity of the following compounds was determined
# with a Minispec pc 20 (20 MHz, 0.47 T) at 37° C. in human plasma
# and compared to that of Gd-DTPA-polylysine and Magnevist^(R) as
# comparison substances. Since the substances according to the
# invention contain more than one metal atom, the relaxivity was
# normalized to one metal atom for purposes of comparison.
# [3] = In-vivo comparison with an intravascular and an extracellular contrast medium in blocked kidneys (diffusibility); design: species or system rats; conditions: i.v., blocked renal vessels, compound 2 set at 100%
# Protocol: As test animals, three 250 g male (Schering-SPF) rats were used. The renal vessels in the animals were blocked to prevent renal elimination and, assuming that fecal elimination is negligible, to obtain a measure of the diffusibility of the formulation according to the invention from the blood into the surrounding tissue. 0.5 ml (in each case 10 mmol/l) of the following contrast medium solution was intravenously administered per animal: a mixture consisting of 1 part each of the compound of Example 1g, named compound 1 below, of intravascular contrast medium Eu-DTPA-albumin, named compound 2 below and of extracellular contrast medium Dy-DTPA, named compound 3 below. Via a catheter in the common carotid artery, blood samples were taken at the following times: 15, 30, 45, 60, 90 seconds; 3, 5, 10, 15 minutes p.i. In the blood samples that were obtained, in each case the concentrations of gadolinium (Gd), europium (Eu) and dysprosium (Dy) were measured in parallel using atom emission spectrometry (ICP-AES). The proportion of the intravascular contrast medium compound 2 (Eu) that remains in the blood space was set at 100%. It was possible to compare the proportion of the formulation according to the invention of compound 1 (Gd) and compound 3 (Dy, extracellular comparison substance) that remained in the blood space by the different labeling in the same animal, and the proportion was set as a percentage of the concentration of compound 2.
# [4] = Blood elimination kinetics after one-time intravenous administration; format: in vivo, rats; conditions: two-compartment model, n=3
# Protocol: (§1) For this purpose, after one-time intravenous administration (via a caudal vein) of the substances (dose: ≈100 μmol of metal per kg of body weight), the substance concentration in the blood (based on the Gd or Dy content) was determined over a period of up to 120 minutes p.i. using ICP-AES. The pharmacokinetic parameters: distribution volume (Vss), total clearance (CLtot) and elimination half-life (tb) were calculated with a special computer program (TOPFIT 2.0; Thomae, Schering, Godecke), whereby a two-compartment distribution model was used as a basis.
# The Gd and Dy contents in the blood were determined using ICP-AES.
# as §1, with “metal” for “Gd or Dy”
# [5] = Table 3, i.v. ≈100 μmol metal/kg
# [6] = Table 4, i.v. ≈100 μmol metal/kg
compound,measurement,setting,value
CNC(=O)CN(CCN(CCN(CC(=O)[O-])CC(=O)NC)CC(=O)[O-])CC(=O)[O-].[Gd+3] [Omniscan],T^1-relaxivity,[1],3.5 to 4.9 mM⁻¹ s⁻¹
"C[NH2+]C[C@H](O)[C@@H](O)[C@H](O)[C@H](O)CO.O=C([O-])CN1CCN(CC(=O)[O-])CCN(CC(=O)[O-])CCN(CC(=O)[O-])CC1.[Gd+3] [Dotarem, meglumine salt of Gd-DOTA (Gadolinium(III)complex of 1,4,7,10-tetracarboxymethyl-1,4,7,10-tetraazacyclododecane)]",T^1-relaxivity,[1],3.5 to 4.9 mM⁻¹ s⁻¹
"1,4,7-Tris{N-hexanoyl-2,6-bis<amino-N-acetyl-2-[aminopropanoyl-(2-yl)]-[1,4,7-tris(N-carboxylatomethyl)-1,4,7,10-tetraazacyclododecan-10-yl, Gd complex]>}-10-[N-acetyl-(2-amino-N-ethyl-N-perfluorooctylsulfonyl)]-1,4,7,10-tetraazacyclododecane [Example 27]",R^1 (T^1-relaxivity),[2],16.1 L/mmol/s
CC(O)CN1CCN(CC(=O)[O-])CCN(CC(=O)[O-])CCN(CC(=O)[O-])CC1.[Gd+3] (stereo not shown) [Pro Hance],T^1-relaxivity,[1],3.5 to 4.9 mM⁻¹ s⁻¹
Dy-DTPA [reference compound],Percentage of the dose that remains in the blood space,[3]; 30 seconds p.i.,48%
same,Percentage of the dose that remains in the blood space,[3]; 3 minutes p.i.,25%
same,Percentage of the dose that remains in the blood space,[3]; 10 minutes p.i.,21%
same,Distribution volume Vss (MEAN),[4]; [5],0.17 Ukg
same,Elimination half-life tβ (MEAN),[4]; [5],20.7 min
same,Total clearance CLtot (MEAN),[4]; [5],6.75 mU (min*kg)
same,tα (MEAN),[4]; [5],2.07 min
same,Distribution volume Vss (MEAN),[4]; [6],0.17 Ukg
same,Elimination half-life tβ (MEAN),[4]; [6],18.5 min
same,Total clearance CLtot (MEAN),[4]; [6],6.90 mL·kg·min
same,tα (MEAN),[4]; [6],1.48 min
"1,4,7-Tris{N-3,9-bis(carboxylatomethyl)-6-[N-3-aza-2,5-dioxo-pentane-1,5-diyl]-3,6,9-triazaundecane-1-carboxylato-11-acid, Gd complex, sodium salt}-10-[N-acetyl-(2-amino-N-ethyl-N-perfluorooctylsulfonyl)]-1,4,7,10-tetraazacyclododecane [18d)]",R^1 (T^1-relaxivity),[2],23.0 L/mmol/s
"1,4,7-Tris{N-[3,9-bis(N-carboxylatomethyl)]-6-[N-(3-aza-2,5-dioxo-pentane)-1,5-diyl]-3,6,9-triazaundecane-1-carboxylato-11-acid, Gd complex, monosodium salt}-10-N-{undecanoyl-<11-amino-N-[acetyl-(2-amino-N-ethyl-N-perfluorooctyl-sulfonyl)]>}-1,4,7,10-tetraazacyclododecane [25f)]",R^1 (T^1-relaxivity),[2],15.1 L/mmol/s
"1,4,7-Tris{1,4,7-tris-(N-carboxylatomethyl)-10-[N-(4,7-diaza-3,6,9-trioxo)-nonane-2,9-diyl]-1,4,7,10-tetraazacyclododecane, Gd complex-10-(N-22F,22F,22F,21F,21F,20F,20F,19F,19F,18F,18F,17F,17F,16F,16F,15F,15F-heptadecafluoro-12-oxa-docosanoyl)-1,4,7,10-tetraazacyclododecane [14e)]",R^1 (T^1-relaxivity),[2],19.3 L/mmol/s
Eu-DTPA-albumin [compound 2],Percentage of the dose that remains in the blood space,[3]; 30 seconds p.i.,100%
same,Percentage of the dose that remains in the blood space,[3]; 3 minutes p.i.,100%
same,Percentage of the dose that remains in the blood space,[3]; 10 minutes p.i.,100%
"C[NH2+]C[C@H](O)[C@@H](O)[C@H](O)[C@H](O)CO.C[NH2+]C[C@H](O)[C@@H](O)[C@H](O)[C@H](O)CO.O=C([O-])CN(CCN(CC(=O)[O-])CC(=O)[O-])CCN(CC(=O)[O-])CC(=O)[O-].[Gd+3] [Magnevist, di--N-methylglucamine salt of the Gd-DTPA complex, reference compound]",R^1 (T^1-relaxivity),[2],4.8 L/mmol/s
same,T^1-relaxivity,[1],3.5 to 4.9 mM⁻¹ s⁻¹
"1,4,7-Tris{N-3,3,6-tris(carboxylatomethyl)-6-[N-3-aza-2,5-dioxo-pentane-1,5-diyl]-3,6,9-triazaundecane-1,11-dioic acid, Gd complex, monosodium salt}-10-2H,2H,4H,4H,5H,5H-3-oxa-perfluoro-tridecanoyl)-1,4,7,10-tetraazacyclododecane [8b)]",R^1 (T^1-relaxivity),[2],20.6 L/mmol/s
"1,4,7-Tris{N-hexanoyl-2,6-bis<amino-N-acetyl-2-[3,9-bis(N-carboxylato-methyl)-6-yl-3,6,9-triazaundecane-1-carboxylato-11-acid, Gd complex, monosodium salt]>}-10-[N-acetyl-(2-amino-N-ethyl-N-perfluorooctylsulfonyl)]-1,4,7,10- tetraazacyclododecane [26d)]",R^1 (T^1-relaxivity),[2],13.0 L/mmol/s
